PubChem BioAssay AID298 (DTP/NCI, 2004)
Where “and” joins values, the source holds several entries; their conditions need not be identical. Equal values may be shown once. Results filed as inconclusive are left out.

Test system: MX-1 breast xenograft, intrarenal, nude mice, tumor weight
Assay: NCI In Vivo Anticancer Drug Screen. Data for tumor model Human Mammary Carcinoma MX-1 Xenograft (intrarenal inoculation) in NU/NU BALB/C (nude) mice
Conditions: endpoint: mean tumor weight change, higher = larger tumour
Summary of the method: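 Efficacy in vivo: tumor measurement or survival of treated animals divided by that of vehicle-dosed controls.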

[1] = dose: 25.0 mg/kg/injection, schedule: Q04DX003 (ip), vehicle: saline
[2] = dose: 50.0 mg/kg/injection, schedule: Q04DX003 (ip), vehicle: saline
[3] = dose: 100.0 mg/kg/injection, schedule: Q04DX003 (ip), vehicle: saline

COc1cc([C@@H]2c3cc4c(cc3[C@@H](OC3OC5COC(C)OC5C(O)C3O)[C@H]3COC(=O)[C@H]23)OCO4)cc(OC)c1O (stereo not given in full)
T/C (dose: 2.0 mg/kg/injection, schedule: Q01DX010 (ip), vehicle: saline): 58 % of control and 62 % of control
T/C (dose: 4.0 mg/kg/injection, schedule: Q01DX010 (ip), vehicle: saline): 23 % of control and 30 % of control
T/C (dose: 8.0 mg/kg/injection, schedule: Q01DX010 (ip), vehicle: saline): 5 % of control and 20 % of control
T/C (dose: 16.0 mg/kg/injection, schedule: Q01DX010 (ip), vehicle: saline): 4 % of control and 6 % of control
T/C (dose: 64.0 mg/kg/injection, schedule: Q04DX003 (ip), vehicle: saline): 76 % of control

N#Cc1c(-c2ccc(F)cc2)c(-c2ccc(F)cc2)nn(CCO)c1=O
T/C (dose: 50.0 mg/kg/injection, schedule: Q04DX003 (ip), vehicle: distilled water + Tween-80): 109 % of control
T/C (dose: 400.0 mg/kg/injection, schedule: Q04DX003 (ip), vehicle: distilled water + Tween-80): -28 % of control

COC1=C(OC)C(=O)C(SC/C=C(\C)CCCC(C)CCCC(C)CCCC(C)C)=CC1=O (stereo not given)
T/C (dose: 300.0 mg/kg/injection, schedule: Q04DX003 (ip), vehicle: saline with Tween-80): 220 % of control
T/C (dose: 600.0 mg/kg/injection, schedule: Q04DX003 (ip), vehicle: saline with Tween-80): 61 % of control
T/C (dose: 1200.0 mg/kg/injection, schedule: Q04DX003 (ip), vehicle: saline with Tween-80): 75 % of control

COC(COC(=O)N1CCN(C=O)CC1)C1=C(N2CC2)C(=O)C(C)=C(N2CC2)C1=O (stereo not given)
T/C (dose: 3.0 mg/kg/injection, schedule: Q04DX003 (ip), vehicle: saline): 5 % of control and -16 % of control

CCOC(=O)Nc1cc2c(c(N)n1)N=C(c1ccc3ccccc3c1)CN2
T/C (dose: 3.75 mg/kg/injection, schedule: Q04DX003 (ip), vehicle: saline with Tween-80): 73 % of control
T/C (dose: 7.5 mg/kg/injection, schedule: Q04DX003 (ip), vehicle: saline with Tween-80): 81 % of control
T/C (dose: 15.0 mg/kg/injection, schedule: Q04DX003 (ip), vehicle: saline with Tween-80): 44 % of control
T/C (dose: 30.0 mg/kg/injection, schedule: Q04DX003 (ip), vehicle: saline with Tween-80): 34 % of control

CNC(=O)O/N=C(\CN=[N+]=[N-])C(C)(C)C
T/C (dose: 0.63 mg/kg/injection, schedule: Q04DX003 (sc), vehicle: saline): 116 % of control
T/C (dose: 1.25 mg/kg/injection, schedule: Q04DX003 (sc), vehicle: saline): 71 % of control
T/C (dose: 2.5 mg/kg/injection, schedule: Q04DX003 (sc), vehicle: saline): 84 % of control

Cc1cc(N(CCOS(C)(=O)=O)CCOS(C)(=O)=O)ccc1C=Nc1ccc(-c2nc(Cc3ccccc3)sc2C)cc1
T/C (dose: 50.0 mg/kg/injection, schedule: Q01DX010 (sc), vehicle: Klucel (hydroxypropylcellulose) (HPC)): -72 % of control
T/C (dose: 100.0 mg/kg/injection, schedule: Q01DX010 (sc), vehicle: Klucel (hydroxypropylcellulose) (HPC)): -60 % of control
T/C (dose: 200.0 mg/kg/injection, schedule: Q01DX010 (sc), vehicle: Klucel (hydroxypropylcellulose) (HPC)): -90 % of control
T/C (dose: 400.0 mg/kg/injection, schedule: Q01DX010 (sc), vehicle: Klucel (hydroxypropylcellulose) (HPC)): -86 % of control

Cc1ccc(C2NC(=O)c3ccccc3N2)s1 (stereo not given)
T/C (dose: 600.0 mg/kg/injection, schedule: Q04DX003 (sc), vehicle: Klucel (hydroxypropylcellulose) (HPC)): 105 % of control
T/C (dose: 1200.0 mg/kg/injection, schedule: Q04DX003 (sc), vehicle: Klucel (hydroxypropylcellulose) (HPC)): 106 % of control
T/C (dose: 2400.0 mg/kg/injection, schedule: Q04DX003 (sc), vehicle: Klucel (hydroxypropylcellulose) (HPC)): 118 % of control
T/C (dose: 4800.0 mg/kg/injection, schedule: Q04DX003 (sc), vehicle: Klucel (hydroxypropylcellulose) (HPC)): 97 % of control

CC1=C(/C=C/C(C)=C/C=C/C(C)=C/C(=O)Nc2ccc(O)cc2)C(C)(C)CCC1
T/C (dose: 100.0 mg/kg/injection, schedule: Q04DX003 (ip), vehicle: saline with Tween-80): 67 % of control
T/C (dose: 200.0 mg/kg/injection, schedule: Q04DX003 (ip), vehicle: saline with Tween-80): 81 % of control
T/C (dose: 400.0 mg/kg/injection, schedule: Q04DX003 (ip), vehicle: saline with Tween-80): 58 % of control
T/C (dose: 800.0 mg/kg/injection, schedule: Q04DX003 (ip), vehicle: saline with Tween-80): 69 % of control

C/C(=N\NC(=O)c1ccccc1O)c1cccc(/C(C)=N/NC(=O)c2ccccc2O)n1
T/C [1]: 109 % of control
T/C [2]: 77 % of control
T/C [3]: 100 % of control

CO[C@H]1C[C@@H]2CC[C@@H](C)[C@@](O)(O2)C(=O)C(=O)N2CCCC[C@H]2C(=O)O[C@H]([C@H](C)C[C@@H]2CC[C@@H](O)[C@H](OC)C2)CC(=O)[C@H](C)C=C(C)[C@@H](O)[C@@H](OC)C(=O)[C@H](C)C[C@H](C)/C=C/C=C/C=C1C
T/C (dose: 100.0 mg/kg/injection, schedule: Q01DX010 (sc), vehicle: saline with Tween-80): 30 % of control
T/C (dose: 200.0 mg/kg/injection, schedule: Q01DX010 (sc), vehicle: saline with Tween-80): 22 % of control
T/C (dose: 400.0 mg/kg/injection, schedule: Q01DX010 (sc), vehicle: saline with Tween-80): 54 % of control
T/C (dose: 800.0 mg/kg/injection, schedule: Q01DX010 (sc), vehicle: saline with Tween-80): 54 % of control

CC(C)CCC(=O)c1ccoc1
T/C (dose: 0.75 mg/kg/injection, schedule: Q01DX010 (ip), vehicle: saline with Tween-80): 101 % of control
T/C (dose: 1.5 mg/kg/injection, schedule: Q01DX010 (ip), vehicle: saline with Tween-80): 103 % of control
T/C (dose: 3.0 mg/kg/injection, schedule: Q01DX010 (ip), vehicle: saline with Tween-80): 84 % of control

NCCSC(C[N+](=O)[O-])c1ccccc1Cl (stereo not given)
T/C [1]: 86 % of control
T/C [2]: 86 % of control
T/C [3]: 85 % of control

CC[C@@H](C)[C@H]([C@H](CC(=O)N1CCC[C@@H]1[C@@H](OC)[C@H](C)C(=O)N[C@H](Cc1ccccc1)c1nccs1)OC)N(C)C(=O)[C@H](NC(=O)[C@@H](C(C)C)N(C)C)C(C)C
T/C (dose: 13.0 micrograms/kg/injection, schedule: Q04DX003 (ip), vehicle: saline + alcohol): 61 % of control
T/C (dose: 26.0 micrograms/kg/injection, schedule: Q04DX003 (ip), vehicle: saline + alcohol): 50 % of control
T/C (dose: 52.0 micrograms/kg/injection, schedule: Q04DX003 (ip), vehicle: saline + alcohol): 14 % of control

COc1cccc2c1[C@H]1CO[C@H]3C4C[C@H](C(=O)O)C([C@@H](C2)N13)N4C (stereo not given in full)
T/C (dose: 1.25 mg/kg/injection, schedule: Q04DX003 (ip), vehicle: other): 50 % of control
T/C (dose: 2.5 mg/kg/injection, schedule: Q04DX003 (ip), vehicle: other): 32 % of control and 33 % of control
T/C (dose: 5.0 mg/kg/injection, schedule: Q04DX003 (ip), vehicle: other): 16 % of control and 19 % of control
T/C (dose: 7.5 mg/kg/injection, schedule: Q04DX003 (ip), vehicle: water): 9 % of control
T/C (dose: 10.0 mg/kg/injection, schedule: Q04DX003 (ip), vehicle: other): 8 % of control and 9 % of control
T/C (dose: 15.0 mg/kg/injection, schedule: Q04DX003 (ip), vehicle: water): 2 % of control
T/C (dose: 20.0 mg/kg/injection, schedule: Q04DX003 (ip), vehicle: other): 2 % of control
T/C (dose: 30.0 mg/kg/injection, schedule: Q04DX003 (ip), vehicle: water): 2 % of control

CCOc1cc2c(cc1C(C)c1ccc(OC)cc1)OCO2 (stereo not given)
T/C (dose: 300.0 mg/kg/injection, schedule: Q04DX003 (sc), vehicle: distilled water + alcohol): 36 % of control
T/C (dose: 600.0 mg/kg/injection, schedule: Q04DX003 (sc), vehicle: distilled water + alcohol): 90 % of control
T/C (dose: 1200.0 mg/kg/injection, schedule: Q04DX003 (sc), vehicle: distilled water + alcohol): 76 % of control
T/C (dose: 2400.0 mg/kg/injection, schedule: Q04DX003 (sc), vehicle: distilled water + alcohol): 111 % of control

CC(=O)N(C)O
T/C (dose: 37.5 mg/kg/injection, schedule: Q04DX003 (sc), vehicle: saline with Tween-80): 98 % of control
T/C (dose: 75.0 mg/kg/injection, schedule: Q04DX003 (sc), vehicle: saline with Tween-80): 80 % of control
T/C (dose: 150.0 mg/kg/injection, schedule: Q04DX003 (sc), vehicle: saline with Tween-80): 69 % of control
T/C (dose: 300.0 mg/kg/injection, schedule: Q04DX003 (sc), vehicle: saline with Tween-80): 87 % of control

Oc1c(Cl)cc(Cl)cc1C=NCCSc1ccc(Cl)cc1
T/C (dose: 150.0 mg/kg/injection, schedule: Q04DX003 (ip), vehicle: Klucel (hydroxypropylcellulose) (HPC)): 99 % of control and 112 % of control
T/C (dose: 300.0 mg/kg/injection, schedule: Q04DX003 (ip), vehicle: Klucel (hydroxypropylcellulose) (HPC)): 95 % of control
T/C (dose: 600.0 mg/kg/injection, schedule: Q04DX003 (ip), vehicle: Klucel (hydroxypropylcellulose) (HPC)): 104 % of control and 107 % of control
